The results in this text go back to patent publication US10874743B2, “IRAK degraders and uses thereof” (Kymera Therapeutics, Inc., priority 2017, dated 2020).

The test has as its target CRBN-DDB1 / GST-IRAK4 ternary complex (Homo sapiens, UniProt Q96SW2+Q9NWZ3). The test is described as follows: AlphaLISA assay to determine ternary complex formation. The class given is binding. The procedure: The assay mixture contains 100 nM CRBN-DDB1, 100 nM GST-IRAK4, 20 μg/mL Nickle Chelate Donor Bead (Perkin Elmer Catalog # AS101D) and 20 μg/mL GSH Acceptor Bead (Perkin Elmer Catalog # AL109C) in a buffer containing 50 mM HEPES, pH 7.5, 100 mM NaCl, 0.1% BSA, 2 mM TCEP, 0.05% Tween-20. […] AlphaLISA signals (Excitation 680 nm and emission 615 nm) were recorded on a Perkin Elmer EnVision 2104 Multilabel reader. The raw data was converted to the relative amount of ternary complex formation by normalization to the signal generated by His-tagged GST protein only. The final data points were plotted and the curves were fit using non-linear regression using GraphPad Prism software.

Sequence of CRBN-DDB1 / GST-IRAK4 ternary complex (Q9NWZ3 whole entry): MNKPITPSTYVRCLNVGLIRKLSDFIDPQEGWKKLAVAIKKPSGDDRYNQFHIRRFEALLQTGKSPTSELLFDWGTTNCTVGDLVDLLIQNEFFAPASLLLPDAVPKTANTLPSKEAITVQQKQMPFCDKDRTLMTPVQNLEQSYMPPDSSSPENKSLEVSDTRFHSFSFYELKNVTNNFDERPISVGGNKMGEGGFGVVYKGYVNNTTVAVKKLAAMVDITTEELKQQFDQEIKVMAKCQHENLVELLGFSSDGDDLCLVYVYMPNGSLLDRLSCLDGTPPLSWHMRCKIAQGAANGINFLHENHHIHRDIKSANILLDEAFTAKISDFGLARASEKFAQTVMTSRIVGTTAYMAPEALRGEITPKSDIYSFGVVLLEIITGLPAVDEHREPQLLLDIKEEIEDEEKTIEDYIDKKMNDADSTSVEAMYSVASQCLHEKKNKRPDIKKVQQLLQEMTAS
Sequence of CRBN-DDB1 / GST-IRAK4 ternary complex (Q96SW2 whole entry): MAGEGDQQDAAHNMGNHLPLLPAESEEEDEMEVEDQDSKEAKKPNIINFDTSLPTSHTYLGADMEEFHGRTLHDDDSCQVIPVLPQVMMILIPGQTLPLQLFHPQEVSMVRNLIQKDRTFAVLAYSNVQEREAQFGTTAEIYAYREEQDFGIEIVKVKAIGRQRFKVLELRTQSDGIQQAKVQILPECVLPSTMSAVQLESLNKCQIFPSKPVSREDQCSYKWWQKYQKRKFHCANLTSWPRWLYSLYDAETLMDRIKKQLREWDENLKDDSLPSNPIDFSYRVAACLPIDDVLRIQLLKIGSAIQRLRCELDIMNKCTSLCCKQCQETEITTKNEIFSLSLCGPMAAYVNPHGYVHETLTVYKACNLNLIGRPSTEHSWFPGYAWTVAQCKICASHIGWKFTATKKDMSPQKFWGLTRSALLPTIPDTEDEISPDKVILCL
Sequence of CRBN-DDB1 / GST-IRAK4 ternary complex (Q16531 whole entry partner): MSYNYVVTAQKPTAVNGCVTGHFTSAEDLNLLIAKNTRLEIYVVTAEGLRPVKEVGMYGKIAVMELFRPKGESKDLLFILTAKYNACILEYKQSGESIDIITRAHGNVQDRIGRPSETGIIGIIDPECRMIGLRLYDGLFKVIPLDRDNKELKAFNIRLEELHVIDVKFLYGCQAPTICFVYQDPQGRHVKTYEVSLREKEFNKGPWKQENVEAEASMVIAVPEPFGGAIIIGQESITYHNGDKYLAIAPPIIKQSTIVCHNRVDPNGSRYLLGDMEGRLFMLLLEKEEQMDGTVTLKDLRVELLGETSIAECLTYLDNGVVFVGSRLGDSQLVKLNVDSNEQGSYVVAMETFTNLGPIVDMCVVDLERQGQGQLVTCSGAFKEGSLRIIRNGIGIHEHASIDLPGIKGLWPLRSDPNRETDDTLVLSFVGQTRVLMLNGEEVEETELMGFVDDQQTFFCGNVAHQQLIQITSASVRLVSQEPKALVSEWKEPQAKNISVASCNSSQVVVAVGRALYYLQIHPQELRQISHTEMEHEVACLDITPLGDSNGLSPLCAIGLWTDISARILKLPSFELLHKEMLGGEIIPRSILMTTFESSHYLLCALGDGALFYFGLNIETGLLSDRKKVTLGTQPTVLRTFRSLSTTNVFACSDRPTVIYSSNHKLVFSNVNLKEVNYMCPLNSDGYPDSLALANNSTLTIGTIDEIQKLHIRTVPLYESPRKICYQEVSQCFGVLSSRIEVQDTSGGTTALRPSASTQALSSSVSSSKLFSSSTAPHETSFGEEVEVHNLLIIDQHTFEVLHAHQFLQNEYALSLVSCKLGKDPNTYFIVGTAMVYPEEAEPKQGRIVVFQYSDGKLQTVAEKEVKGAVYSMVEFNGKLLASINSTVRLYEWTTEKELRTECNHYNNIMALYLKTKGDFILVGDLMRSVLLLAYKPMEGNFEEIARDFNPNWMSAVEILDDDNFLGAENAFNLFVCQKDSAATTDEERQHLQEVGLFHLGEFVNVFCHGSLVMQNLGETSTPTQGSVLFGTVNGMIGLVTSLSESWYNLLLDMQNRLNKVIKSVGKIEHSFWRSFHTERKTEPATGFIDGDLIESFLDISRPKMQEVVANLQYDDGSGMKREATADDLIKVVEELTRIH

As for `NC(=O)c1nn(-c2ccc(C(=O)NCCOCCOCCNc3cccc4c3C(=O)N(C3CCC(=O)NC3=O)C4=O)cc2)cc1NC(=O)c1coc(-c2ccnc(NCC(F)(F)F)c2)n1` (stereo not drawn) [I-127, N-[3-carbamoyl-1-[4-[2-[2-[2-[[2-(2,6-dioxo-3-piperidyl)-1,3-dioxo-isoindolin-4-yl]amino]ethoxy]ethoxy]ethylcarbamoyl]phenyl]pyrazol-4-yl]-2-[2-(2,2,2-trifluoroethylamino)-4-pyridyl]oxazole-4-carboxamide], the “Average % Ternary Complex (N = 2)” value reads like this: (compound concentration 1.00E−07 M) 31.29%; (compound concentration 1.25E−08 M) 5.89%; (compound concentration 1.28E−05 M) 1.58%; (compound concentration 1.60E−06 M) 12.53%; (compound concentration 2.00E−07 M) 28.96%; (compound concentration 2.50E−08 M) 12.66%. The “Average % Ternary Complex (N = 2)” value runs as follows: (compound concentration 3.20E−06 M) 6.74%; (compound concentration 4.00E−07 M) 25.83%; (compound concentration 5.00E−08 M) 23.14%; (compound concentration 6.25E−09 M) 2.71%; (compound concentration 6.40E−06 M) 3.36%; (compound concentration 8.00E−07 M) 17.79%.
